# Tests used:
# [1] = test system: phospho-AKT (pAKT) in T47D (H1047R) cells; experiment: pAKT alphaLISA Surefire Ultra AKT 1/2/3 (pS473) assay in T47D cells; type: cell-based; conditions: Homo sapiens, 24 hr treatment
# Method: (§1) The ability of a Compound 1 to inhibit the formation of pAKT was measured using alphaLISA Surefire Ultra AKT 1/2/3 (pS473) Assay Kit (#ALSU-PAKT-B50K) was obtained from Perkin Elmer (Waltham, MA). The ability of Compound 1 to decrease the viability of cells was measured using CellTiter-Glo 2.0 (CTG) Luminescent Cell Viability Assay (#G9241) obtained from Promega (Madison, WI).
# To prepare assay plates for pAKT alphaLISA assays, cells were trypsinized, resuspended in fresh media, and viable cells were counted utilizing trypan blue exclusion. Prior to seeding, cells were washed with PBS and resuspended in HBSS (Gibco, #14025092). […]
# Immediately after seeding, cells were dosed using an Echo Liquid Handler (Beckman Coulter) with compounds at a 10.4 μm starting concentration and serially diluted (1:4) for a total of 10concentrations. […] Plates were then imaged the following day using a CLARIOstar microplate reader (BMG Labtech, Germany).
# Percent of control values were calculated by subtracting the average signal from the positive control (alpelisib) treated wells from all treated wells (including DMSO control wells) and then divided by the average signal from the vehicle DMSO treated control wells. Percent of vehicle control values were plotted as log (inhibitor) vs. response-Variable slope (four parameters) for curve fitting and IC50 values were determined using XLfit.
# [2] = test system: T47D (H1047R mutant) cells; experiment: CellTiter-Glo 2.0 cell viability assay, T47D; type: cell-based; conditions: Homo sapiens, 72 hours, CTG
# Method: as §1
# To prepare assay plates for viability assays, cells were trypsinized, resuspended in fresh media, and viable cells were counted utilizing trypan blue exclusion. […]
# Assay day 1, cells were dosed using an Echo Liquid Handler (Beckman Coulter) with compounds at a 10 μm starting concentration and serially diluted (1:4) for a total of 10concentrations. […] After 72 hours of treatment, cell plates were equilibrated to room temperature before adding 15 μl of CTG to each well, plates were then covered in aluminum foil to protect from light, incubated at room temperature for 30 minutes on a microtiter plate shaker, and luminescence readings were collected using a CLARIOstar microplate reader (BMG Labtech, Germany). Percent of vehicle control values were plotted as log (inhibitor) vs. response-Variable slope (four parameters) for curve fitting and IC50 values were determined using XLfit.
# [3] = Solubility of amorphous solids of Compound 1 in single solvents at room temperature; type: physicochemical
# Method: The amorphous solids of Compound 1 as prepared in Example 1 was measured in 20 single solvents at room temperature and crystallization screening was then conducted in the same set of solvents. For each solvent tested, a slurry of the amorphous solids and the solvent was prepared with a […] and the amorphous solids were allowed to dissolve. The slurry was then agitated with a stir bar for approximately 1 hour at room temperature. The wet solids were then analyzed by powder X-ray diffraction (PXRD). The solids were collected and dried under vacuum for 1 day and the crystalline form was confirmed by PXRD. Only one crystalline form was obtained and designated as Form 1.
# [4] = Dynamic vapor sorption (DVS) of crystalline form; type: physicochemical; conditions: crystalline form (Form 1)
# Method: (§2) The crystalline form of Compound 1 is highly crystalline and has a needle/thin rod-like morphology. FIG. 2A and 2B are polarized light microscopy (PLM) images of this crystalline form of Compound 1. Additionally, the crystalline form of Compound 1 was characterized by PXRD, DSC, TGA, ^1H-NMR, HPLC, and DVS. The solvent used for the ^1H-NMR was methanol.
# (§3) The crystalline form has a high melting temperature (˜177-180° C.) with no thermal degradation until >210° C. The crystalline form appears to be an anhydrous form and is non-hygroscopic. The crystalline form was analyzed by PXRD before and after DVS.
# [5] = Thermal stability (DSC/TGA) of crystalline form; type: physicochemical; conditions: crystalline form (Form 1)
# Method: as §2, §3
compound,measurement,setting,value
"Cc1cc([C@@H](C)Nc2ccc(Cl)nc2C(=O)O)c2nc(N3CCOCC3)c(C#N)nc2c1 [Compound 1, (R)-6-chloro-3-((1-(2-cyano-7-methyl-3-morpholinoquinoxalin-5-yl)ethyl)amino) picolinic acid]",IC50,[1],1.8 nM
same,IC50,[2],24 nM
same,solubility,"[3]; organic solvent or mixture, thermodynamic from solid, 1,4-Dioxane",> 221 mg/mL
same,solubility,"[3]; organic solvent or mixture, thermodynamic from solid, 2-MeTHF",> 230 mg/mL
same,solubility,"[3]; organic solvent or mixture, thermodynamic from solid, ACN",> 202 mg/mL
same,solubility,"[3]; organic solvent or mixture, thermodynamic from solid, DCM",> 192 mg/mL
same,solubility,"[3]; organic solvent or mixture, thermodynamic from solid, DMF",> 216 mg/mL
same,solubility,"[3]; organic solvent or mixture, thermodynamic from solid, DMSO",> 241 mg/mL
same,solubility,"[3]; organic solvent or mixture, thermodynamic from solid, EtOAc",> 204 mg/mL
same,solubility,"[3]; organic solvent or mixture, thermodynamic from solid, EtOH",43 to 53.7 mg/mL
same,solubility,"[3]; organic solvent or mixture, thermodynamic from solid, IPA",14.4 to 16.8 mg/mL
same,solubility,"[3]; organic solvent or mixture, thermodynamic from solid, IPAc",> 221 mg/mL
same,solubility,"[3]; organic solvent or mixture, thermodynamic from solid, MEK",> 191 mg/mL
same,solubility,"[3]; organic solvent or mixture, thermodynamic from solid, MIBK",> 189 mg/mL
same,solubility,"[3]; organic solvent or mixture, thermodynamic from solid, MTBE",102 to 221 mg/mL
same,solubility,"[3]; organic solvent or mixture, thermodynamic from solid, MeOH",> 210 mg/mL
same,solubility,"[3]; organic solvent or mixture, thermodynamic from solid, THF",> 215 mg/mL
same,solubility,"[3]; organic solvent or mixture, thermodynamic from solid, acetone",> 230 mg/mL
same,solubility,"[3]; organic solvent or mixture, thermodynamic from solid, heptane",< 1.3 mg/mL
same,solubility,"[3]; organic solvent or mixture, thermodynamic from solid, nPA",47.1 to 58.9 mg/mL
same,solubility,"[3]; organic solvent or mixture, thermodynamic from solid, toluene",> 204 mg/mL
same,solubility,"[3]; thermodynamic from solid, water",< 1.3 mg/mL
same,Form change by PXRD before and after DVS,[4],no form change
same,Hygroscopicity (DVS),[4],non-hygroscopic
same,DVS weight gain at 80% RH,[4]; 80% RH,0.11%
same,Temperature until which no thermal degradation,[5],> 210 °C

# — patent US20250276960A1, “CRYSTALLINE FORMS OF (R)-6-CHLORO-3-((1-(2-CYANO-7-METHYL-3-MORPHOLINOQUINOXALIN-5-YL)ETHYL)AMINO)PICOLINIC ACID” (MIRATI THERAPEUTICS, INC., priority 2024, published 2025)
